Drawing on patent publication US8802673B2, “Heterocyclic amine derivatives” (Hoffmann-La Roche Inc, priority 2011, dated 2014), this text covers Ki and Kd for 15 compounds.

pKd: −log10 of the molar value.

For one test, the target named is mouse TAAR1 (Mus musculus (Mouse), UniProt Q923Y8). Put plainly: Radioligand binding assay on mouse TAAR1. The settings on record: for Ki: mouse TAAR1 (first value of the cell), HEK-293 membranes, read-out: Ki (μM) mouse/rat. In short, it runs like this:
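Membranes from HEK293 cells stably expressing mouse TAAR1, Kd of radioligand determined per batch by saturation. Compounds tested 10 pM to 10 μM in duplicate, incubated 1 h at 4 °C, then filtration over PEI-soaked GF/C filters and scintillation counting.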

The next test concerns the target rat TAAR1 (Rattus norvegicus (Rat), UniProt Q923Y9). Put plainly: Radioligand binding assay on rat TAAR1. As to conditions: for Ki: rat TAAR1 (second value of the cell), HEK-293 membranes, read-out: Ki (μM) mouse/rat. The method in brief:
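Membranes from HEK293 cells stably expressing rat TAAR1 were used, with radioligand Kd determined by saturation for each batch. Compounds (10 pM to 10 μM, in duplicate) were incubated for 1 h at 4 °C. Bound radioactivity was collected by filtration onto PEI-soaked GF/C filters and counted by scintillation.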

Sequence of rat TAAR1 (Q923Y9 whole entry): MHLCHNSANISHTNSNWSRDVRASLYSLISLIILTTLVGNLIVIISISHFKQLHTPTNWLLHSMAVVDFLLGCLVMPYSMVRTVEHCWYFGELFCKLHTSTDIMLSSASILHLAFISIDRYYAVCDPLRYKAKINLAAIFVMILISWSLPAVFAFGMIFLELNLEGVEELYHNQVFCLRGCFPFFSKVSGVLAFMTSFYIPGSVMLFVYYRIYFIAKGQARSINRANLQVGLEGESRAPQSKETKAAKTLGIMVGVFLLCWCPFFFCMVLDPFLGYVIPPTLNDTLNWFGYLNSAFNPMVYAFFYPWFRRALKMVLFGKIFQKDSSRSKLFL
Sequence of mouse TAAR1 (Q923Y8 whole entry): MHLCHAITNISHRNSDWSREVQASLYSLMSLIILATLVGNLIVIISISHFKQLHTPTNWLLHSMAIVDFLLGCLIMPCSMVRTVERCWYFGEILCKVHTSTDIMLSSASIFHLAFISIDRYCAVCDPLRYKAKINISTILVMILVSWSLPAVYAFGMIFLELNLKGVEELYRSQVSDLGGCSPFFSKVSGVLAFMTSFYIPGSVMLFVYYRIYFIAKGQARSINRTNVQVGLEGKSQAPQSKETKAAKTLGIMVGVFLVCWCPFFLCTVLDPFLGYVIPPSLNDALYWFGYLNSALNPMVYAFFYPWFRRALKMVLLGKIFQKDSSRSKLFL

With `FC(F)(F)c1cc(Nc2ccc([C@@H]3CNCCO3)cc2)ncn1` [Example 198, (R)—N-(4-(Morpholin-2-yl)phenyl)-6-(trifluoromethyl)pyrimidin-4-amine], the results for the Ki at mouse TAAR1 and at rat TAAR1 were 0.0419 µM and 0.163 µM, respectively.

Take `Clc1cc(Nc2ccc([C@@H]3CNCCO3)cc2)ncn1` [Example 199, (R)-6-Chloro-N-(4-(morpholin-2-yl)phenyl)pyrimidin-4-amine]: the Ki on mouse TAAR1 was 0.0231 µM; on rat TAAR1 it was 0.056 µM.

For the compound `FC(F)(F)c1nccc(Nc2ccc([C@@H]3CNCCO3)cc2)n1` [Example 200, (R)—N-(4-(morpholin-2-yl)phenyl)-2-(trifluoromethyl)pyrimidin-4-amine], the Ki at mouse TAAR1 is 0.0089 µM; on rat TAAR1 it was 0.0588 µM.

As for `FC(F)(F)c1cnc(Nc2ccc([C@@H]3CNCCO3)cc2)cn1` [Example 201, (R)—N-(4-(Morpholin-2-yl)phenyl)-5-(trffluoromethyl)pyrazin-2-amine], the results for the Ki at mouse TAAR1 and at rat TAAR1 were 0.008 µM and 0.0626 µM, respectively.

For `Clc1cnc(Nc2ccc([C@@H]3CNCCO3)c(Cl)c2)nc1` [Example 202, ((R)-3-Chloro-4-morpholin-2-yl-phenyl)-(5-chloro-pyrimidin-2-yl)-amine], the values for the Ki at mouse TAAR1 and on rat TAAR1 were 0.0032 µM and 0.0065 µM, respectively.

`FC(F)(F)COc1cnc(Nc2ccc([C@@H]3CNCCO3)c(Cl)c2)nc1` [Example 203, ((R)-3-Chloro-4-morpholin-2-yl-phenyl)-[5-(2,2,2-trifluoro-ethoxy)-pyrimidin-2-yl]-amine]: the Ki on mouse TAAR1 amounted to 0.0022 µM; on rat TAAR1, 0.0017 µM.

With `FC(F)(F)c1cnc(Nc2ccc([C@@H]3CNCCO3)c(Cl)c2)nc1` [Example 204, ((R)-3-Chloro-4-morpholin-2-yl-phenyl)-(5-trifluoromethyl-pyrimidin-2-yl)-amine], the Ki on mouse TAAR1 came out at 0.0038 µM; on rat TAAR1, 0.0021 µM.

For the compound `Clc1cnc(Nc2ccc([C@@H]3CNCCO3)cc2)cn1` [Example 205, (R)-5-Chloro-N-(4-(morpholin-2-yl)phenyl)pyrazin-2-amine], the Ki on mouse TAAR1 is 0.0026 µM; on rat TAAR1, 0.162 µM.

For the compound `Clc1cncc(Nc2ccc([C@@H]3CNCCO3)cc2)n1` [Example 206, (R)-6-Chloro-N-(4-(morpholin-2-yl)phenyl)pyrazin-2-amine], the results for the Ki at mouse TAAR1 and on rat TAAR1 were 0.005 µM and 0.0963 µM, respectively.

On to `Fc1cc(Nc2ncc(OCC(F)(F)F)cn2)ccc1[C@@H]1CNCCO1` [Example 207, (R)—N-(3-Fluoro-4-(morpholin-2-yl)phenyl)-5-(2,2,2-trifluoroethoxy)pyrimidin-2-amine], for which the Ki on mouse TAAR1 is 0.0043 µM; at rat TAAR1, 0.0102 µM.

In the case of `Fc1cc(Nc2nccc(OCC(F)(F)F)n2)ccc1[C@@H]1CNCCO1` [Example 208, (R)—N-(3-Fluoro-4-(morpholin-2-yl)phenyl)-4-(2,2,2-trifluoroethoxy)pyrimidin-2-amine], the Ki was found to be 0.003 µM on mouse TAAR1 and 0.0035 µM on rat TAAR1.

In the case of `Fc1cc(Nc2ncc(F)c(OCC(F)(F)F)n2)ccc1[C@@H]1CNCCO1` [Example 209, (R)-5-Fluoro-N-(3-fluoro-4-(morpholin-2-yl)phenyl)-4-(2,2,2-trifluoroethoxy)pyrimidin-2-amine], the Ki is 0.0032 µM at mouse TAAR1 and 0.0025 µM at rat TAAR1.

In the case of `Fc1cc(Nc2ncc(Cl)cn2)ccc1[C@@H]1CNCCO1` [Example 210, (R)-5-Chloro-N-(3-fluoro-4-(morpholin-2-yl)phenyl)pyrimidin-2-amine], the Ki on mouse TAAR1 stood at 0.0047 µM; on rat TAAR1, 0.0266 µM.

As to `FC(F)(F)COc1ccnc(Nc2ccc([C@@H]3CNCCO3)c(Cl)c2)n1` [Example 211, ((R)-3-Chloro-4-morpholin-2-yl-phenyl)-[4-(2,2,2-trifluoro-ethoxy)-pyrimidin-2-yl]-amine], the Ki stood at 0.0042 µM on mouse TAAR1 and 0.0011 µM on rat TAAR1.

As to `CCN(C[C@H]1COC(N)=N1)c1ccccc1` [^3[H]-(S)-4-[(ethyl-phenylamino)-methyl]-4,5-dihydro-oxazol-2-ylamine, reference compound], the pKd on mouse TAAR1 (mouse TAAR1 membranes, saturation curve, usual value, read-out: dissociation constant (Kd) of the radioligand) is approximately 9.15; at rat TAAR1 (rat TAAR1 membranes, saturation curve, usual value, read-out: dissociation constant (Kd) of the radioligand), approximately 8.64.
